Laboratory results from US5942519A, “Prevention of precipitated acute urinary retention” (Merck & Co., Inc., priority 1998, dated 1999).

Tests used:
[1] = test system: precipitated acute urinary retention; test: Four-year double-blind, placebo-controlled study in men with BPH: precipitated acute urinary retention; assay type: in vivo, human
Description: A total of 3040 men with moderate to severe symptoms of BPH and enlarged prostates were treated with either finasteride (17β-(N-tert-butylcarbamoyl)-3-oxo-4-aza-5α-androst-1-en-3-one,5 mg daily) or placebo in a four year double-blind, placebo-controlled study. BPH-related outcomes were assessed every 4 months. Patients on alpha blockers, antiandrogens, with a history of chronic prostatitis, recurrent urinary tract infections, or prior prostate or bladder surgery were excluded. A total of 3016 patients randomized to treatment had efficacy data and were included in the analysis of precipitated acute urinary retention; 1513 in the finasteride group and 1503 in the placebo group.
The endpoint committee, blinded to treatment group, reviewed all study-related documents related to episodes of acute urinary retention to classify the episodes as spontaneous or precipitated by other factors. All acute urinary retentions were classified by the endpoint committee as being "clearly" BPH related ("spontaneous") if there was no clear precipitating event, such as surgery within 72 hours, a precipitating medical event (e.g. stroke), or ingestion of a medication thought to precipitate retention (e.g., pseudoephedrine hydrochloride), etc. The other episodes of acute urinary retention were classified as not "clearly" BPH related ("precipitated") since there was likely to be more than one factor (including BPH) involved that precipitated the event.
Acute urinary retention was analyzed using the log-rank test for time-to-first-event and corroborated with Fisher's exact test on the cumulative incidence.

[2] = test system: BPH / spontaneous acute urinary retention; details: patients with BPH; cited from earlier work
[3] = test system: human type 2 enzyme (5α-reductase); details: cited from earlier work

CC(C)(C)NC(=O)[C@H]1CC[C@H]2[C@@H]3CC[C@H]4NC(=O)C=C[C@]4(C)[C@H]3CC[C@]12C [finasteride, 17β-(N-tert-butylcarbamoyl)-3-oxo-4-aza-5α-androst-1-en-3-one]
patients with an episode of precipitated acute urinary retention (percent) ([1]; 5 mg daily, 4-year study period, n=1513 finasteride, placebo 3.3%): 1.5%
patients with an episode of precipitated acute urinary retention (number) ([1]; 5 mg daily, 4-year study period, n=1513 finasteride, placebo 49 of 1503): 23 patients
reduction of the risk of having an episode of precipitated acute urinary retention ([1]; 5 mg daily, compared with placebo, over the 4-year study period): 52%
relative risk (hazard ratio) versus placebo, precipitated acute urinary retention ([1]; finasteride 5 mg daily versus placebo, 4-year study period): 0.48
reducing spontaneous acute urinary retention (in words) [2]: significantly reducing spontaneous acute urinary retention
treating BPH (in words) [2]: effective in treating BPH
inhibition of the human type 2 enzyme (in words) [3]: potent inhibitor of the human type 2 enzyme
